Consider twelve compounds from patent US20120202794A1 (priority 2011, published 2012).

One series relates to HCV Replicon 1b. Description: HCV inhibition assay, HCV replicon 1b (Clone A or ET-lunet cells; RT-PCR or luciferase reporter). The following applies: Hepatitis C virus, 96 h, HCV replicon 1b; 4 days incubation; read-out: Replicon 1b potency EC90. It is filed as cell-based. An outline of the steps: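 Clone A (1500/well) or ET-lunet (3000/well) replicon cells treated with serially diluted compounds (0.5% DMSO, no G418) for 4 days at 37 °C. HCV RNA measured by one-step RT-PCR normalized to rRNA (ΔΔCt) or by luciferase luminescence versus DMSO controls; EC50/EC90 by curve fitting.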

Series [1] relates to Huh7, HepG2, BxPC3, or CEM cells. Put plainly: Cell cytotoxicity assay (MTS), CC90 as reported in Table 1, cell line not stated. The following applies: MTS assay; 8 days incubation; cell line not given. The class given is cell-based. An outline of the steps:
(§1)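 Compounds, serially diluted from 100 μM, were incubated 8 days at 37° C with Huh7, HepG2 or BxPC3 (2×10^3 cells/well) or CEM (5×10^3 cells/well). Viability was read by MTS, 2 h, absorbance 490 nm. CC90 (90% inhibition) was taken against untreated cells.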
On the technique in general: Tetrazolium dyes change colour on reduction, which living cells bring about.

Test in series [2]: as above
The following applies: human; MTS assay; 8 days incubation; cell line not given. The class given is cell-based. An outline of the steps:
as §1

Series [3] concerns genotype (GT) 1a H77 replicon. Put plainly: Replicon assay, H77 GT 1a replicon in Huh7-Lunet cells (RT-PCR). The class given is cell-based, HCV. Conditions: Hepatitis C virus, GT1A, Huh-7, 96 h, 4 days incubation, read-out: RT-PCR H77 1a Potency EC90. The protocol: Cell Line and Maintenance: The genotype (GT) 1a H77 replicon (Apath LLC Brooklyn, N.Y.) was stably expressed in Huh7-Lunet cells (kindly provided by R. Bartenschlager University of Heidelberg, Heidelberg, Germany) and maintained in Dulbecco's modified Eagle's medium supplemented with 10% fetal bovine serum, 0.1 mM non essential amino acids (NEAA), 4 mM L-glutamine, 1 mM sodium pyruvate and 0.750 mg/mL G418 (Geneticin) (Invitrogen, Carlsbad, Calif.).
Replicon Assay: Inhibition of HCV in the H77 GT 1a replicon (Apath LLC, Brooklyn, N.Y.) was measured by Real-Time PCR (RT-PCR) Replicon cells were added to the plate at 1500 cells/well in 50 μL of medium and 50 μL of 2× drug dilutions were added (in duplicate) per well in a 96 well plate to total 100 μL per well. The plate was incubated at 37° C. in a humidified 8% CO2 atmosphere for 4 days. After incubation, the supernatant was discarded and total RNA was extracted with RNeasy 96 (Qiagen, Valencia Calif.) per manufacturer's instructions. The extracted RNA was amplified as described by Stuyver et al., J. Virol. (2003) 77: 10689-10694, and the ΔCt values for HCV were determined and the EC90 was calculated using GraphPad Prism software (San Diego, Calif.). A “no drug” (medium only) control was used to determine maximum amount of HCV RNA.
(A replicon is a self-replicating genome or part of one, used to study replication in cells.)

As for `CC(C)C[C@H]1C(=O)N[C@@H](c2ccccc2)CN1C(=O)[C@@H]1C[C@H]1c1ccc(Cl)cc1` [Compound 301, (3S,6S)-4-((1R,2R)-2-(4-chlorophenyl)cyclopropanecarbonyl)-3-isobutyl-6-phenyl-piperazin-2-one], the EC90 – broadly, the concentration at which the effect reaches the 90% level – with HCV Replicon 1b was determined as 170 nM. In series [1], this compound showed a CC90 of over 10000 nM.
For `CC(C)C[C@H]1C(=O)N[C@@H](c2cccs2)CN1C(=O)c1cc(-c2ccc(F)cc2)on1` [Compound 426, (3S,6R)-4-(5-(4-fluorophenyl)isoxazole-3-carbonyl)-3-isobutyl-6-(thiophen-2-yl)piperazin-2-one], the figures for the EC90 (in the series on HCV Replicon 1b; in series [3]) were 18 nM and 48 nM, respectively. The CC90 at 8 days in series [2] is over 10000 nM.
Regarding `CC(C)C[C@H]1CN(C(=O)[C@@H]2C[C@H]2c2ccc(F)cc2F)[C@@H](CC(C)C)C(=O)N1` [Compound 298, (3S,6S)-4-[(1R,2R)-2-(2,4-fluoro-phenyl)-cyclopropanecarbonyl]-3,6-diisobutyl-piperazin-2-one], the EC90 with HCV Replicon 1b is 230 nM. Further, the CC90 in series [1] was over 10000 nM.
With `CC(C)C[C@H]1C(=O)N[C@@H](c2ccccc2F)CN1C(=O)[C@@H]1C[C@H]1c1ccc(F)cc1` [Compound 373, (3S,6S)-6-(2-fluorophenyl)-4-((1R,2R)-2-(4-fluorophenyl)cyclopropanecarbonyl)-3-isobutylpiperazin-2-one], the values for the EC90 (with HCV Replicon 1b; in series [3]) were 57 nM and 87 nM, respectively. In series [2], this compound gave a CC90 at 8 days of over 10000 nM.
In the case of `CC(C)C[C@H]1C(=O)N[C@@H](c2ccsc2)CN1C(=O)c1noc(-c2ccc(F)cc2)n1` [Compound 446, (3S,6S)-4-(5-(4-fluorophenyl)-1,2,4-oxadiazole-3-carbonyl)-3-isobutyl-6-(thiophen-3-yl)piperazin-2-one], the results for the EC90 (in the series on HCV Replicon 1b; in series [3]) were 14 nM and 28 nM, respectively. This compound also yielded a CC90 at 8 days in series [2] of over 10000 nM.
In the case of `CC(C)C[C@H]1C(=O)N[C@@H](c2cccs2)CN1C(=O)c1noc(-c2ccc(F)cc2)n1` [Compound 430, (3S,6R)-4-(5-(4-fluorophenyl)-1,2,4-oxadiazole-3-carbonyl)-3-isobutyl-6-(thiophen-2-yl)piperazin-2-one], the EC90 in the series with HCV Replicon 1b was 2.6 nM; in series [3] it was 18 nM. Moreover, the CC90 at 8 days in series [2] was over 10000 nM.
For `CC(C)C[C@H]1C(=O)N[C@@H](c2ccsc2)CN1C(=O)[C@@H]1C[C@H]1c1ccc(F)cc1` [Compound 445, (3S,6S)-4-((1R,2R)-2-(4-fluorophenyl)cyclopropanecarbonyl)-3-isobutyl-6-(thiophen-3-yl)piperazin-2-one], the EC90 with HCV Replicon 1b came to 27 nM; in series [3] it was 20 nM. The same compound came in with a CC90 at 8 days in series [2] of over 10000 nM.
Regarding `CC(C)C[C@H]1CN(C(=O)c2cc(-c3ccc([N+](=O)[O-])cc3)on2)[C@@H](CC(C)C)C(=O)N1` [Compound 273, (3S,6S)-3,6-diisobutyl-4-(5-(4-nitrophenyl)isoxazole-3-carbonyl)piperazin-2-one], in the series with HCV Replicon 1b, the EC90 was determined as 3760 nM. For the same compound, the CC90 in series [1] was over 10000 nM.
Take `CC(C)C[C@H]1C(=O)N[C@@H](c2cnco2)CN1C(=O)[C@@H]1C[C@H]1c1ccc(F)cc1` [Compound 521, (3S,6R)-4-((1R,2R)-2-(4-fluorophenyl)cyclopropanecarbonyl)-3-isobutyl-6-(oxazol-5-yl)piperazin-2-one]: the EC90 in the series with HCV Replicon 1b amounted to 22 nM; in series [3], 4 nM. The same compound displayed a CC90 at 8 days in series [2] of over 10000 nM.
Regarding `CC(C)C[C@H]1C(=O)N[C@@H](c2cccs2)CN1C(=O)c1cc(-c2ccc(F)cc2)no1` [Compound 432, (3S,6R)-4-(3-(4-fluorophenyl)isoxazole-5-carbonyl)-3-isobutyl-6-(thiophen-2-yl)piperazin-2-one], the EC90 in the series with HCV Replicon 1b is 20 nM; in series [3], 22 nM. The compound further gave a CC90 at 8 days in series [2] of over 10000 nM.
As for `CC(C)C[C@H]1C(=O)N[C@@H](c2ccccc2)CN1C(=O)c1noc(-c2ccc(F)cc2)n1` [Compound 292, (3S,6S)-4-(5-(4-Fluorophenyl)-1,2,4-oxadiazole-3-carbonyl)-3-isobutyl-6-phenylpiperazin-2-one], the figures for the EC90 (with HCV Replicon 1b; in series [3]) were 78 nM and 79 nM, respectively. Moreover, in series [2], the CC90 at 8 days is over 10000 nM.
On to `CC(C)C[C@H]1C(=O)N[C@@H](c2ccsc2)CN1C(=O)c1cc(-c2ccc(F)cc2)on1` [Compound 436, (3S,6S)-4-(5-(4-fluorophenyl)isoxazole-3-carbonyl)-3-isobutyl-6-(thiophen-3-yl)piperazin-2-one], for which the concentration for an effect of 90% (EC90) in the series on HCV Replicon 1b turned out to be 18 nM; in series [3], 38 nM. Further, in series [2], the CC90 at 8 days was over 10000 nM.
